In brackets after ≈: the same amount, converted by molar mass.
Tests used:
Assay type in all cases: functional
Oryza sativa [1] = test: Phytotoxicity in Oryza sativa (rice) assessed as assessed as growth rate at 30 g/acre by Oryza sativa (rice) injury assay
Echinochloa crus-galli [2] = test: Herbicidal activity against Echinochloa crus-galli (barnyard grass) assessed as growth rate at 1 g/acre
Echinochloa crus-galli [3] = test: Herbicidal activity against Echinochloa crus-galli (barnyard grass) assessed as growth rate at 3 g/acre
Echinochloa crus-galli [4] = test: Herbicidal activity against Echinochloa crus-galli (barnyard grass) assessed as growth rate at 30 g/acre
Echinochloa crus-galli [5] = test: Herbicidal activity against Echinochloa crus-galli (barnyard grass)
Oryza sativa [6] = test: Phytotoxicity in Oryza sativa (rice) assessed as assessed as growth rate at 10 g/acre by Oryza sativa (rice) injury assay

SMILES	Activity (Oryza sativa [1]) [%]	Activity (Echinochloa crus-galli [2]) [%]	Activity (Echinochloa crus-galli [3]) [%]	Activity (Echinochloa crus-galli [4]) [%]	MIC (Echinochloa crus-galli [5]) [µg/mL]	Activity (Oryza sativa [6]) [%]
CC[C@H]1O[C@@H]2[C@@H](OCc3ccccc3F)[C@@H](CC)O[C@@H]2c2ccccc21	71	91	91	0	0.8 (≈ 2.24 µM)	
CC[C@H]1O[C@@H]2c3ccccc3[C@H](C)O[C@@H]2[C@H]1OCc1ccccc1F	0	0	0	0	0.2 (≈ 0.584 µM)	11
CC[C@H]1O[C@@H]2c3sccc3CO[C@@H]2[C@H]1OCc1ccccc1F	0	6	0	0	0.1 (≈ 0.299 µM)	6
CC[C@H]1O[C@@H]2c3ccccc3CO[C@@H]2[C@H]1OCc1ccccc1C(F)(F)F	91	91	71	0	0.4 (≈ 1.06 µM)	91
CC[C@H]1O[C@@H]2c3ccsc3CO[C@@H]2[C@H]1OCc1ccccc1F	91	6	0	0	0.3 (≈ 0.897 µM)	91
CC[C@H]1O[C@@H]2c3ccccc3CO[C@@H]2[C@H]1OCc1ccc(F)cc1	71	11	0	0	1 (≈ 3.05 µM)	91
CC[C@H]1O[C@@H]2c3ccccc3CO[C@@H]2[C@H]1O	91	91	91	91		91
CC[C@H]1O[C@@H]2C[C@](C)(c3ccccc3)O[C@@H]2[C@H]1OCc1ccccc1F	6		6	0	0.1 (≈ 0.281 µM)	91
CC[C@H]1O[C@@H]2c3ccccc3CO[C@@H]2[C@H]1OCc1ccccc1C#N	91	91	91	0	3.2 (≈ 9.54 µM)	91
CC[C@H]1O[C@@H]2c3ccccc3CO[C@@H]2[C@H]1OCc1cccc(F)c1	91	11	0	0	0.3 (≈ 0.914 µM)	91
CC[C@H]1O[C@@H]2c3ccccc3CO[C@@H]2[C@H]1OCc1cccs1	91	91	11	0	0.8 (≈ 2.53 µM)	91
CC[C@H]1O[C@@H]2c3ccccc3C(=O)O[C@@H]2[C@H]1OCc1ccccc1C	91			11	3 (≈ 8.87 µM)	91
CCc1ccccc1CO[C@@H]1[C@H]2OCc3ccccc3[C@H]2O[C@@H]1CC	91		11	0	0.6 (≈ 1.77 µM)	91
CC[C@@H]1O[C@@H]2[C@@H](OCc3ccccc3F)[C@@H](CC)O[C@@H]2c2ccccc21	0	91	11	0	0.4 (≈ 1.12 µM)	
CC[C@H]1O[C@@H]2c3ccccc3CO[C@@H]2[C@H]1OCc1ccccc1Cl	91		6	0	0.2 (≈ 0.58 µM)	91
CC[C@H]1O[C@@H]2c3ccccc3CO[C@@H]2[C@H]1OCc1ccccc1	0	11	6	0	0.4 (≈ 1.29 µM)	11

SMILES	Activity (Oryza sativa [1]) [%]	Activity (Echinochloa crus-galli [2]) [%]	Activity (Echinochloa crus-galli [3]) [%]	Activity (Echinochloa crus-galli [4]) [%]	MIC (Echinochloa crus-galli [5]) [µg/mL]	Activity (Oryza sativa [6]) [%]
CC[C@H]1O[C@@H]2c3ccccc3CO[C@@H]2[C@H]1OCc1ccsc1	91	91	71	0	0.3 (≈ 0.948 µM)	91
CC[C@H]1O[C@@H]2c3ccccc3C(C)(CBr)O[C@@H]2[C@H]1OCc1ccccc1F (stereo partly drawn)	91		71	0	> 3	91
CC[C@H]1O[C@@H]2c3ccccc3CO[C@@H]2[C@H]1OC(C)=O	91	91	91	91	80 (≈ 305 µM)	91
CC[C@H]1O[C@@H]2c3ccccc3C(C)O[C@@H]2[C@H]1OCc1ccccc1C (stereo partly drawn)	11	6	0	0	0.2 (≈ 0.591 µM)	11
CC[C@H]1O[C@@H]2c3ccccc3CO[C@@H]2[C@H]1OCc1ccccc1F	11	11	6	0	0.2 (≈ 0.609 µM)	71
CC[C@H]1O[C@@H]2c3ccccc3CO[C@@H]2[C@H]1O[Si](C)(C)C(C)(C)C	91	91	91	91	> 100	91
CC[C@H]1O[C@@H]2c3ccccc3CO[C@@H]2[C@H]1OC(C)c1ccccc1 (stereo partly drawn)	91		41	0	3 (≈ 9.25 µM)	91
CC[C@H]1O[C@@H]2c3ccccc3CO[C@@H]2[C@H]1OCc1ccccc1C	0	11	0	0	0.4 (≈ 1.23 µM)	11
CC[C@H]1O[C@@H]2c3ccccc3CO[C@@H]2[C@H]1OCc1cccc2ccccc12	91	91	91	91	10 (≈ 27.7 µM)	91
CC[C@H]1O[C@@H]2c3occc3CO[C@@H]2[C@H]1OCc1ccccc1C	71	91	41	6	0.2 (≈ 0.636 µM)	91
CC[C@H]1O[C@@H]2c3ccccc3CO[C@@H]2[C@H]1OC(=O)c1ccccc1	91		91	6	3.3 (≈ 10.2 µM)	91
CC[C@H]1O[C@@H]2c3ccccc3[C@@H](C)O[C@@H]2[C@H]1OCc1ccccc1F	0	11	6	0	0.7 (≈ 2.04 µM)	91
Cc1ccccc1CO[C@H]1C[C@]2(C(C)C)CC[C@@]1(C)O2 (relative stereo) [REL-CINMETHYLIN]	11	0	0	0	0.1 (≈ 0.364 µM)	41
CC[C@H]1O[C@@H]2c3ccccc3CO[C@@H]2[C@H]1OCC1CCCCC1	91		91	11	10 (≈ 31.6 µM)	91
CC[C@H]1O[C@@H]2c3ccsc3CO[C@@H]2[C@H]1OCc1ccccc1C	91		11	0	0.7 (≈ 2.12 µM)	91
CC[C@H]1O[C@@H]2c3ccccc3CO[C@@H]2[C@H]1OC1CCc2ccccc21 (stereo partly drawn)	91		41	0	0.3 (≈ 0.892 µM)	91
